{"source": "ChEMBL document CHEMBL3885881", "about": "“DrugMatrix”", "species_on_record": "Rattus norvegicus", "experiment": "DrugMatrix - Regimen: Daily Repeat", "type": "toxicity, organism-based, Sprague-Dawley", "set-up": "regimen Daily Repeat, gender Male, age 6-8 weeks", "conditions": "in vivo, po, route oral GAVAGE, vehicle 100 % WATER", "key": {"[1]": {"conditions": "0 mg/kg, 72 h, tissue Blood, dose level Control, time 3 day"}, "[2]": {"conditions": "0 mg/kg, 72 h, tissue Plasma, dose level Control, time 3 day"}, "[3]": {"conditions": "0 mg/kg, 120 h, tissue Blood, dose level Control, time 5 day"}, "[4]": {"conditions": "0 mg/kg, 120 h, tissue Plasma, dose level Control, time 5 day"}, "[5]": {"conditions": "24 mg/kg, 72 h, tissue Blood, dose level Low, time 3 day"}, "[6]": {"conditions": "24 mg/kg, 72 h, tissue Plasma, dose level Low, time 3 day"}, "[7]": {"conditions": "24 mg/kg, 120 h, tissue Blood, dose level Low, time 5 day"}, "[8]": {"conditions": "24 mg/kg, 120 h, tissue Plasma, dose level Low, time 5 day"}}, "data": [{"sequence": "COLISTIN", "values": [{"measurement": "BASOPHIL", "setting": "[1]", "result": 0, "unit": "%"}, {"measurement": "EOSINOPHIL", "setting": "[1]", "result": 0.5, "unit": "%"}, {"measurement": "ERYTHROCYTE COUNT", "setting": "[1]", "result": 5.8, "unit": "x10E6/uL"}, {"measurement": "HEMATOCRIT", "setting": "[1]", "result": 35.07, "unit": "%"}, {"measurement": "LEUKOCYTE COUNT", "setting": "[1]", "result": 13.7, "unit": "x10E3/uL"}, {"measurement": "MEAN CORPUSCULAR HEMOGLOBIN", "setting": "[1]", "result": 24.38, "unit": "pg"}, {"measurement": "MEAN CORPUSCULAR HEMOGLOBIN CONCENTRATION", "setting": "[1]", "result": 40.28, "unit": "G/DL"}, {"measurement": "MONOCYTE", "setting": "[1]", "result": 2.67, "unit": "%"}, {"measurement": "NEUTROPHIL", "setting": "[1]", "result": 14.5, "unit": "%"}, {"measurement": "PLATELET COUNT", "setting": "[1]", "result": 911.5, "unit": "x10E3/uL"}, {"measurement": "ALANINE AMINOTRANSFERASE", "setting": "[2]", "result": 36.83, "unit": "u/L"}, {"measurement": "ALKALINE PHOSPHATASE", "setting": "[2]", "result": 399.83, "unit": "u/L"}, {"measurement": "ASPARTATE AMINOTRANSFERASE", "setting": "[2]", "result": 66, "unit": "u/L"}, {"measurement": "BLOOD UREA NITROGEN", "setting": "[2]", "result": 14.67, "unit": "mg/dL"}, {"measurement": "CHOLESTEROL", "setting": "[2]", "result": 66.33, "unit": "mg/dL"}, {"measurement": "CREATINE PHOSPHOKINASE", "setting": "[2]", "result": 139.5, "unit": "u/L"}, {"measurement": "CREATININE", "setting": "[2]", "result": 0.92, "unit": "mg/dL"}, {"measurement": "GLUCOSE", "setting": "[2]", "result": 175, "unit": "mg/dL"}, {"measurement": "PHOSPHORUS", "setting": "[2]", "result": 11.42, "unit": "mg/dL"}, {"measurement": "TOTAL BILIRUBIN", "setting": "[2]", "result": 1.13, "unit": "mg/dL"}, {"measurement": "TOTAL PROTEIN", "setting": "[2]", "result": 6.87, "unit": "G/DL"}, {"measurement": "BASOPHIL", "setting": "[3]", "result": 0, "unit": "%"}, {"measurement": "EOSINOPHIL", "setting": "[3]", "result": 0.2, "unit": "%"}, {"measurement": "ERYTHROCYTE COUNT", "setting": "[3]", "result": 6.02, "unit": "x10E6/uL"}, {"measurement": "LEUKOCYTE COUNT", "setting": "[3]", "result": 12.34, "unit": "x10E3/uL"}, {"measurement": "LYMPHOCYTE", "setting": "[3]", "result": 83, "unit": "%"}, {"measurement": "MEAN CORPUSCULAR HEMOGLOBIN", "setting": "[3]", "result": 23.92, "unit": "pg"}, {"measurement": "MEAN CORPUSCULAR VOLUME", "setting": "[3]", "result": 60.66, "unit": "fL"}, {"measurement": "MONOCYTE", "setting": "[3]", "result": 3, "unit": "%"}, {"measurement": "NEUTROPHIL", "setting": "[3]", "result": 13.8, "unit": "%"}, {"measurement": "PLATELET COUNT", "setting": "[3]", "result": 1190.6, "unit": "x10E3/uL"}, {"measurement": "ALANINE AMINOTRANSFERASE", "setting": "[4]", "result": 43, "unit": "u/L"}, {"measurement": "ALKALINE PHOSPHATASE", "setting": "[4]", "result": 393, "unit": "u/L"}, {"measurement": "ASPARTATE AMINOTRANSFERASE", "setting": "[4]", "result": 62.33, "unit": "u/L"}, {"measurement": "CHOLESTEROL", "setting": "[4]", "result": 65.5, "unit": "mg/dL"}, {"measurement": "CREATINE PHOSPHOKINASE", "setting": "[4]", "result": 130.67, "unit": "u/L"}, {"measurement": "CREATININE", "setting": "[4]", "result": 0.58, "unit": "mg/dL"}, {"measurement": "GLUCOSE", "setting": "[4]", "result": 180.67, "unit": "mg/dL"}, {"measurement": "PHOSPHORUS", "setting": "[4]", "result": 11.28, "unit": "mg/dL"}, {"measurement": "POTASSIUM", "setting": "[4]", "result": 7.05, "unit": "MEQ/L"}, {"measurement": "TOTAL BILIRUBIN", "setting": "[4]", "result": 0.72, "unit": "mg/dL"}, {"measurement": "TOTAL PROTEIN", "setting": "[4]", "result": 6.83, "unit": "G/DL"}, {"measurement": "BASOPHIL", "setting": "[5]", "result": 0, "unit": "%"}, {"measurement": "EOSINOPHIL", "setting": "[5]", "result": 0, "unit": "%"}, {"measurement": "ERYTHROCYTE COUNT", "setting": "[5]", "result": 5.85, "unit": "x10E6/uL"}, {"measurement": "LEUKOCYTE COUNT", "setting": "[5]", "result": 13.3, "unit": "x10E3/uL"}, {"measurement": "LYMPHOCYTE", "setting": "[5]", "result": 81.67, "unit": "%"}, {"measurement": "MEAN CORPUSCULAR HEMOGLOBIN", "setting": "[5]", "result": 24.6, "unit": "pg"}, {"measurement": "MEAN CORPUSCULAR HEMOGLOBIN CONCENTRATION", "setting": "[5]", "result": 40.7, "unit": "G/DL"}, {"measurement": "MEAN CORPUSCULAR VOLUME", "setting": "[5]", "result": 60.33, "unit": "fL"}, {"measurement": "MONOCYTE", "setting": "[5]", "result": 2.67, "unit": "%"}, {"measurement": "NEUTROPHIL", "setting": "[5]", "result": 15.67, "unit": "%"}, {"measurement": "PLATELET COUNT", "setting": "[5]", "result": 839, "unit": "x10E3/uL"}, {"measurement": "ALANINE AMINOTRANSFERASE", "setting": "[6]", "result": 41.67, "unit": "u/L"}, {"measurement": "ALBUMIN", "setting": "[6]", "result": 3.7, "unit": "G/DL"}, {"measurement": "ALKALINE PHOSPHATASE", "setting": "[6]", "result": 316, "unit": "u/L"}, {"measurement": "ASPARTATE AMINOTRANSFERASE", "setting": "[6]", "result": 67, "unit": "u/L"}, {"measurement": "BLOOD UREA NITROGEN", "setting": "[6]", "result": 14.33, "unit": "mg/dL"}, {"measurement": "CREATININE", "setting": "[6]", "result": 0.77, "unit": "mg/dL"}, {"measurement": "GLUCOSE", "setting": "[6]", "result": 176.33, "unit": "mg/dL"}, {"measurement": "PHOSPHORUS", "setting": "[6]", "result": 11.3, "unit": "mg/dL"}, {"measurement": "POTASSIUM", "setting": "[6]", "result": 6.83, "unit": "MEQ/L"}, {"measurement": "SODIUM", "setting": "[6]", "result": 150, "unit": "MEQ/L"}, {"measurement": "TOTAL BILIRUBIN", "setting": "[6]", "result": 0.87, "unit": "mg/dL"}, {"measurement": "TOTAL PROTEIN", "setting": "[6]", "result": 6.77, "unit": "G/DL"}, {"measurement": "BASOPHIL", "setting": "[7]", "result": 0, "unit": "%"}, {"measurement": "EOSINOPHIL", "setting": "[7]", "result": 0.33, "unit": "%"}, {"measurement": "ERYTHROCYTE COUNT", "setting": "[7]", "result": 6.34, "unit": "x10E6/uL"}, {"measurement": "HEMATOCRIT", "setting": "[7]", "result": 37.4, "unit": "%"}, {"measurement": "HEMOGLOBIN", "setting": "[7]", "result": 14.6, "unit": "G/DL"}, {"measurement": "LEUKOCYTE COUNT", "setting": "[7]", "result": 11.93, "unit": "x10E3/uL"}, {"measurement": "LYMPHOCYTE", "setting": "[7]", "result": 83, "unit": "%"}, {"measurement": "MEAN CORPUSCULAR HEMOGLOBIN", "setting": "[7]", "result": 23, "unit": "pg"}, {"measurement": "MEAN CORPUSCULAR HEMOGLOBIN CONCENTRATION", "setting": "[7]", "result": 39.03, "unit": "G/DL"}, {"measurement": "MEAN CORPUSCULAR VOLUME", "setting": "[7]", "result": 58.97, "unit": "fL"}, {"measurement": "NEUTROPHIL", "setting": "[7]", "result": 14.33, "unit": "%"}, {"measurement": "PLATELET COUNT", "setting": "[7]", "result": 1027.67, "unit": "x10E3/uL"}, {"measurement": "ALANINE AMINOTRANSFERASE", "setting": "[8]", "result": 42.67, "unit": "u/L"}, {"measurement": "ALKALINE PHOSPHATASE", "setting": "[8]", "result": 411.33, "unit": "u/L"}, {"measurement": "ASPARTATE AMINOTRANSFERASE", "setting": "[8]", "result": 68.33, "unit": "u/L"}, {"measurement": "BLOOD UREA NITROGEN", "setting": "[8]", "result": 15.67, "unit": "mg/dL"}, {"measurement": "CHOLESTEROL", "setting": "[8]", "result": 64.33, "unit": "mg/dL"}, {"measurement": "CREATINE PHOSPHOKINASE", "setting": "[8]", "result": 121.67, "unit": "u/L"}, {"measurement": "CREATININE", "setting": "[8]", "result": 0.63, "unit": "mg/dL"}, {"measurement": "PHOSPHORUS", "setting": "[8]", "result": 10.87, "unit": "mg/dL"}, {"measurement": "POTASSIUM", "setting": "[8]", "result": 6.6, "unit": "MEQ/L"}, {"measurement": "SODIUM", "setting": "[8]", "result": 149.67, "unit": "MEQ/L"}, {"measurement": "TOTAL BILIRUBIN", "setting": "[8]", "result": 0.73, "unit": "mg/dL"}, {"measurement": "TOTAL PROTEIN", "setting": "[8]", "result": 6.7, "unit": "G/DL"}]}]}
